This passage reports IC50 results from patent US10981879B2, “Thioether triazolopyridine and triazolopyrimidine inhibitors of myeloperoxidase” (BRISTOL-MYERS SQUIBB COMPANY, priority 2014, dated 2021).

In this experiment the target is myeloperoxidase (MPO) (Homo sapiens (Human), UniProt P05164). The experiment in a line: MPO chlorination assay (APF). The experiment is classed as biochemical. The following applies: MPO chlorination assay, ranges given; read-out: MPO chlorination assay IC50. As to the method: MPO chlorination activity was measured in 100 mM KPi (pH 7.4) by utilizing the non-fluorescent reagent Aminophenyl fluorescein (APF, Invitrogen catalog #A36003). APF is cleaved by (—OCl) to yield the fluorescent compound fluorescein. Reactions were carried out in 50 μL total volume by adding a 25 μL mixture of 200 pM myeloperoxidase and 120 mM NaCl to 100 nL inhibitor in 100% DMSO in a 384 well, non-binding surface clear bottom plate (CORNING® #3655). Enzyme, inhibitor, and chloride were preincubated for ten minutes at rt.
After the ten minute preincubation, 25 μL of an APF mixture containing […], 120 mM NaCl and 10 μM H2O2 was added to the plate using the internal dispensing system of a Hammatsu FDSS 6000. Kinetic determinations were carried out immediately on the FDSS 6000 (3 minute kinetic read, 1 read every second, ex: 485 nm, em: 535 nm). IC50 values for inhibitors were calculated by taking the slope of the linear portion of the kinetic measurement (20 seconds to ˜80-120 secs). […]
[formula] where A=minimal Y value (activity level of inhibited sample), B=maximal Y value (activity level of uninhibited sample), C=Log IC50, D=Hill Slope, x=concentration of inhibitor. EPX Bromination Assay

Chain of myeloperoxidase (MPO) (P05164 49-745): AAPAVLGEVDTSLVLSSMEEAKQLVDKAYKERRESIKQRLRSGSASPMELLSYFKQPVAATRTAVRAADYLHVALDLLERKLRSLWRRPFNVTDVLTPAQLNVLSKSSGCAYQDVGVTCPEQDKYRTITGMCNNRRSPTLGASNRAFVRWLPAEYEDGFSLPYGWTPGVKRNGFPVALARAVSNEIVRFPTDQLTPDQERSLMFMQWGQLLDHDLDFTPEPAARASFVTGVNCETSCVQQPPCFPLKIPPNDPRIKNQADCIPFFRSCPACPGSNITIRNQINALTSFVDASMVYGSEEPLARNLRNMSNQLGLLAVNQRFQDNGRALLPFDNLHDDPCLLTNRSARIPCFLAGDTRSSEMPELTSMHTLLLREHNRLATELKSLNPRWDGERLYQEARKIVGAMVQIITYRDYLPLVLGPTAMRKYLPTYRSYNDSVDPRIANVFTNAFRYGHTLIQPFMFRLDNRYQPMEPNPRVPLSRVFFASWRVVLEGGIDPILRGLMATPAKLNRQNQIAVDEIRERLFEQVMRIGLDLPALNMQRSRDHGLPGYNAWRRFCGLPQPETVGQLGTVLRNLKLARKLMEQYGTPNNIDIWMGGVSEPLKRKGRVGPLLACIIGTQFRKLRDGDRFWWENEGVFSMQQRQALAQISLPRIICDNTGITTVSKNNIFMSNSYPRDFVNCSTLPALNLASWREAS

A word on the IC50: it is the concentration at which inhibition is half-maximal. As for `CN(C)Cc1ccc(F)c(CSc2cc(N)nc3[nH]nnc23)c1` [Example 99, 7-((5-((dimethylamino)methyl)-2-fluorobenzyl)thio)-3H-[1,2,3]triazolo[4,5-b]pyridin-5-amine], the IC50 fell in the range of 60 to 200 nM.
To `Cn1nc(C2CC2)cc1CSc1cc(N)nc2[nH]nnc12` [Example 100, 7-(((3-cyclopropyl-1-methyl-1H-pyrazol-5-yl)methyl)thio)-3H-[1,2,3]triazolo[4,5-b]pyridin-5-amine] belongs 60 to 200 nM; to `Nc1cc(SCc2cc(-c3ccccc3)on2)c2nn[nH]c2n1` [Example 101, 7-(((5-phenylisoxazol-3-yl)methyl)thio)-3H-[1,2,3] triazolo[4,5-b]pyridin-5-amine], 60 to 200 nM; to `CS(=O)(=O)c1cccc(Cl)c1CSc1cc(N)nc2[nH]nnc12` [Example 102, 7-((2-chloro-6-(methylsulfonyl)benzyl)thio)-3H-[1,2,3]triazolo[4,5-b]pyridin-5-amine], 60 to 200 nM.
Turning to `Cn1nc(CSc2cc(N)nc3[nH]nnc23)cc1-c1ccccc1` [Example 103, 7-(((1-methyl-5-phenyl-1H-pyrazol-3-yl)methyl)thio)-3H-[1,2,3]triazolo[4,5-b] pyridin-5-amine], the IC50 lay within 60 to 200 nM.
With `Nc1cc(SCc2cccc3c2OC(F)(F)O3)c2nn[nH]c2n1` [Example 105, 7-(((2,2-difluorobenzo[d] [1,3]dioxol-4-yl)methyl)thio)-3H-[1,2,3]triazolo[4,5-b]pyridin-5-amine], the IC50 was in the range of 60 to 200 nM.
As for `CCOC(=O)C(Sc1cc(N)nc2[nH]nnc12)c1ccccc1` (centres unmarked) [Example 106, ethyl 2-((5-amino-3H-[1,2,3]triazolo[4,5-b]pyridin-7-yl)thio)-2-phenylacetate], the IC50 lay within 60 to 200 nM.
With `CC(Sc1cc(N)nc2[nH]nnc12)c1cccnc1` (centres unmarked) [Example 107, 7-((1-(pyridin-3-yl)ethyl)thio)-3H-[1,2,3]triazolo[4,5-b]pyridin-5-amine], the IC50 was 60 to 200 nM.
For the molecule `N#Cc1ncccc1CSc1cc(N)nc2[nH]nnc12` [Example 108, 3-(((5-amino-3H-[1,2,3]triazolo[4,5-b]pyridin-7-yl)thio)methyl)picolinonitrile], the IC50 was in the range of 60 to 200 nM.
Regarding `N#Cc1ccc(OC(F)F)cc1CSc1cc(N)nc2[nH]nnc12` [Example 109], the IC50 was not above 60 nM.
To `N#Cc1ccc(OC2CC2)cc1CSc1cc(N)nc2[nH]nnc12` [Example 110, 2-(((5-amino-3H-[1,2,3]triazolo[4,5-b]pyridin-7-yl)thio)methyl)-4-cyclopropoxybenzonitrile] belongs 60 to 200 nM; to `Cn1nc(C2CC2)c(Cl)c1CSc1cc(N)nc2[nH]nnc12` [Example 111, 7-(((4-chloro-3-cyclopropyl-1-methyl-1H-pyrazol-5-yl)methyl)thio)-3H-[1,2,3] triazolo[4,5-b]pyridin-5-amine], 60 to 200 nM.
To `Cn1nc(-c2ccccc2)c(Cl)c1CSc1cc(N)nc2[nH]nnc12` [Example 112, 7-(((4-chloro-1-methyl-3-phenyl-1H-pyrazol-5-yl)methyl)thio)-3H-[1,2,3] triazolo[4,5-b]pyridin-5-amine] belongs not above 60 nM; to `Nc1cc(SCc2cnn(-c3ccccc3)c2C(F)(F)F)c2nn[nH]c2n1` [Example 114, 7-(((1-phenyl-5-(trifluoromethyl)-1H-pyrazol-4-yl)methyl)thio)-3H-[1,2,3]triazolo[4,5-b] pyridin-5-amine], 60 to 200 nM.
Turning to `Nc1cc(SCc2cn(C3CCCCC3)nc2C(F)(F)F)c2nn[nH]c2n1` [Example 115, 7-(((1-cyclohexyl-3-(trifluoromethyl)-1H-pyrazol-4-yl)methyl)thio)-3H-[1,2,3]triazolo[4,5-b] pyridin-5-amine], the IC50 was 60 to 200 nM.
The figure for `N#Cc1cccc(Cl)c1CSc1cc(N)nc2[nH]nnc12` [Example 117, 2-(((5-amino-3H-[1,2,3]triazolo[4,5-b]pyridin-7-yl)thio)methyl)-3-chlorobenzonitrile] is not above 60 nM; for `Nc1cc(SCc2cc(Cl)cc(S(N)(=O)=O)c2Cl)c2nn[nH]c2n1` [Example 118, 3-(((5-amino-3H-[1,2,3]triazolo[4,5-b]pyridin-7-yl)thio)methyl)-2,5-dichlorobenzenesulfonamide] it is not above 60 nM; for `Nc1cc(SCc2ccc(S(N)(=O)=O)cc2Cl)c2nn[nH]c2n1` [Example 119, 4-(((5-amino-3H-[1,2,3]triazolo[4,5-b]pyridin-7-yl)thio)methyl)-3-chlorobenzenesulfonamide] it is 60 to 200 nM.
To `NC(=O)c1ccc(CSc2cc(N)nc3[nH]nnc23)c(F)c1` [Example 120, 4-(((5-amino-3H-[1,2,3]triazolo[4,5-b]pyridin-7-yl)thio)methyl)-3-fluorobenzamide] belongs 200 to 1000 nM; to `N#Cc1ccc(F)c(CSc2cc(N)nc3[nH]nnc23)c1` [Example 123, 3-(((5-amino-3H-[1,2,3]triazolo[4,5-b]pyridin-7-yl)thio)methyl)-4-fluorobenzonitrile], 60 to 200 nM.
For the molecule `N#Cc1ccc(CSc2cc(N)nc3[nH]nnc23)c(Cl)c1` [Example 124, 4-(((5-amino-3H-[1,2,3]triazolo[4,5-b]pyridin-7-yl)thio)methyl)-3-chlorobenzonitrile], the IC50 was in the range of 200 to 1000 nM.
For the molecule `Nc1cc(SCc2cccc3cccnc23)c2nn[nH]c2n1` [Example 125, 7-((quinolin-8-ylmethyl)thio)-3H-[1,2,3] triazolo[4,5-b]pyridin-5-amine], the IC50 is not above 60 nM.
The figure for `Nc1cc(SC(C(=O)NCc2ccccc2)c2ccccc2)c2nn[nH]c2n1` (centres unmarked) [Example 127, 2-((5-Amino-3H-[1,2,3]triazolo[4,5-b]pyridin-7-yl)thio)-N-benzyl-2-phenylacetamide] is 200 to 1000 nM; for `Nc1cc(SC(CNCc2ccccc2)c2ccccc2)c2nn[nH]c2n1` (centres unmarked) [Example 128, 7-((2-(Benzylamino)-1-phenylethyl)thio)-3H-[1,2,3]triazolo[4,5-b]pyridin-5-amine] it is 60 to 200 nM; for `N#Cc1cccc(-n2cccn2)c1CSc1cc(N)nc2[nH]nnc12` [Example 129, 2-(((5-Amino-3H-[1,2,3]triazolo[4,5-b]pyridin-7-yl)thio)methyl)-3-(1H-pyrazol-1-yl)benzonitrile] it is 200 to 1000 nM.
Turning to `N#Cc1ccc(-c2ccncc2)c(CSc2cc(N)nc3[nH]nnc23)c1` [Example 130, 3-(((5-Amino-3H-[1,2,3]triazolo[4,5-b]pyridin-7-yl)thio)methyl)-4-(pyridin-4-yl)benzonitrile], the IC50 is not above 60 nM.
To `N#Cc1cccc(-n2ccnc2)c1CSc1cc(N)nc2[nH]nnc12` [Example 131, 2-(((5-amino-3H-[1,2,3]triazolo[4,5-b]pyridin-7-yl)thio)methyl)-3-(1H-imidazol-1-yl)benzonitrile] belongs 200 to 1000 nM; to `N#Cc1ccc(-n2cccn2)c(CSc2cc(N)nc3[nH]nnc23)c1` [Example 132, 3-(((5-amino-3H-[1,2,3]triazolo[4,5-b]pyridin-7-yl)thio)methyl)-4-(1H-pyrazol-1-yl) benzonitrile], 60 to 200 nM.
Take `N#Cc1ccc(CSc2cc(N)nc3[nH]nnc23)c(C2CC2)c1` [Example 133, 4-(((5-amino-3H-[1,2,3]triazolo[4,5-b]pyridin-7-yl)thio)methyl)-3-cyclopropylbenzonitrile]: the IC50 was not above 60 nM.
As for `Nc1cc(SCc2cn(-c3ccccc3)nc2C2CC2)c2nn[nH]c2n1` [Example 134, 7-(((3-Cyclopropyl-1-phenyl-1H-pyrazol-4-yl)methyl)thio)-3H-[1,2,3]triazolo[4,5-b]pyridin-5-amine], the IC50 is not above 60 nM.
As to `Nc1cc(SCc2cn(-c3ccccn3)nc2C(F)(F)F)c2nn[nH]c2n1` [Example 135, 7-(((1-(pyridin-2-y1)-3-(trifluoromethyl)-1H-pyrazol-4-yl)methyl)thio)-3H-[1,2,3] triazolo[4,5-b]pyridin-5-amine], the IC50 is not above 60 nM.
In the case of `Nc1cc(SCc2cn(-c3cccnc3)nc2C(F)(F)F)c2nn[nH]c2n1` [Example 136], the IC50 is not above 60 nM.
In the case of `Nc1cc(SCc2cn(-c3ccncc3)nc2C(F)(F)F)c2nn[nH]c2n1` [Example 137], the IC50 was not above 60 nM.
In the case of `Nc1cc(SCc2cn(-c3ccccc3)nc2C(F)F)c2nn[nH]c2n1` [Example 138, 7-(((3-(difluoromethyl)-1-phenyl-1H-pyrazol-4-yl)methyl)thio)-3H-[1,2,3]triazolo[4,5-b] pyridin-5-amine], the IC50 is not above 60 nM.
In the case of `CN(C)c1cccc(-n2cc(CSc3cc(N)nc4[nH]nnc34)c(C(F)(F)F)n2)n1` [Example 140, 7-(((1-(6-(dimethylamino)pyridin-2-yl)-3-(trifluoromethyl)-1H-pyrazol-4-yl)methyl)thio)-3H-[1,2,3]triazolo [4,5-b]pyridin-5-amine], the IC50 was in the range of 200 to 1000 nM.
As to `CN(C)c1cc(-n2cc(CSc3cc(N)nc4[nH]nnc34)c(C(F)(F)F)n2)ccn1` [Example 141, 7-(((1-(2-(dimethylamino)pyridin-4-yl)-3-(trifluoromethyl)-1H-pyrazol-4-yl)methyl)thio)-3H-[1,2,3]triazolo [4,5-b]pyridin-5-amine], the IC50 is not above 60 nM.
To `Nc1cc(SCc2cn(-c3ccncc3)nc2C(F)F)c2nn[nH]c2n1` [Example 142] belongs not above 60 nM.
On to `Nc1cc(SCc2cn(-c3ccnnc3)nc2C(F)F)c2nn[nH]c2n1` [Example 143], for which the IC50 fell in the range of 200 to 1000 nM.
